Source: patent US20110143999A1, “FOWLICIDINS AND METHODS OF ITS USE” (priority 2005, published 2011)
In brackets after ≈: the same amount, converted by molar mass. Where two headings read alike, the source gives them in different places. Residues, ends and D or L forms follow the SMILES beside them.

Assays:
[1] = tested on: LPS from E. coli O111:B4; experiment: LPS binding assay (chromogenic Limulus amebocyte lysate); conditions: Table V; 50% inhibition of LPS-mediated procoagulant activation
[2] = tested on: E. coli ATCC 25922
[3] = tested on: S. typhimurium ATCC 14028
[4] = tested on: S. aureus ATCC 25923
[5] = tested on: L. monocytogenes ATCC 19115; experiment: Modified broth microdilution assay (1% MHB); conditions: Table V, Example 2, listed as fowlicidin-1-K^7L^12K^14L^16K^18
[6] = tested on: three Gram-negative and four Gram-positive bacteria; conditions: Example 3; 20% TSB, 25 mM NaHCO3, 1 mM NaH2PO4, with or without 100 mM NaCl
[7] = tested on: E. coli O157:H7 ATCC 700728; conditions: 1% MHB
[8] = tested on: S. typhimurium DT104 ATCC 700408
[9] = tested on: K. pneumoniae ATCC 13883
[10] = tested on: S. aureus (MRSA) ATCC BAA-39
[11] = tested on: MDCK cells
[12] = tested on: E. coli ATCC 25922; remark: listed apart in the source
[13] = tested on: S. typhimurium ATCC 14028; remark: listed apart in the source
[14] = tested on: S. enteritidis ATCC 13076
[15] = tested on: K. pneumoniae ATCC 13883; remark: listed apart in the source
[16] = tested on: S. typhimurium DT104 ATCC 700408; remark: listed apart in the source
[17] = tested on: L. monocytogenes ATCC 19115
[18] = tested on: S. aureus ATCC 25923; remark: listed apart in the source
[19] = tested on: S. aureus (MRSA) ATCC 43300
[20] = tested on: S. aureus (MRSA) ATCC BAA-39; remark: listed apart in the source
[21] = tested on: Gram-negative and Gram-positive bacteria; conditions: Example 4, summary of Table VII
[22] = tested on: MDCK cells; experiment: Cytotoxicity assay (alamarBlue)

CC[C@H](C)[C@H](NC(=O)[C@H](C)NC(=O)[C@H](CCCNC(=N)N)NC(=O)[C@H](Cc1ccc(O)cc1)NC(=O)[C@H](CC(C)C)NC(=O)[C@H](CCCCN)NC(=O)[C@H](Cc1ccc(O)cc1)NC(=O)[C@H](CC(C)C)NC(=O)[C@H](C)NC(=O)[C@H](CCCCN)NC(=O)[C@@H](NC(=O)[C@H](CC(C)C)NC(=O)[C@H](CCCNC(=N)N)NC(=O)[C@@H](NC(=O)[C@@H](NC(=O)[C@H](CC(C)C)NC(=O)[C@H](CCCCN)NC(=O)[C@H](Cc1c[nH]c2ccccc12)NC(=O)[C@@H](NC(=O)[C@H](CCCNC(=N)N)NC(=O)[C@H](CCCCN)NC(=O)[C@@H](NC(=O)[C@@H](N)CCCNC(=N)N)C(C)C)C(C)C)C(C)C)[C@@H](C)CC)C(C)C)C(=O)N[C@@H](CCCCN)C(=O)N[C@@H](CCCCN)C(=O)N[C@@H](CCCCN)C(=O)O [Fowl-1-KLKLK] (H-RVKRVWKLVIRLVKALYKLYRAIKKK-OH; N-terminus assumed)
EC50 [1]: 6 µM | EC50: 11 µM | Antibacterial Activity (MIC, μM) E. coli ([2]; Table V, Example 2, 1% MHB, listed as fowlicidin-1-K^7L^12K^14L^16K^18): > 7.6 µM | Antibacterial Activity (MIC, μM) Salmonella [3]: 1.9 µM | Antibacterial Activity (MIC, μM) S. aureus [4]: 1.9 µM | Antibacterial Activity (MIC, μM) Listeria [5]: > 7.6 µM

CC[C@H](C)[C@H](NC(=O)[C@@H](NC(=O)[C@@H](NC(=O)[C@@H](NC(=O)[C@@H](NC(=O)[C@H](CCCCN)NC(=O)[C@@H]1CCCN1)C(C)C)[C@@H](C)O)[C@@H](C)CC)[C@@H](C)O)C(=O)N[C@@H](CCC(N)=O)C(=O)NCC(=O)N[C@@H](CO)C(=O)N[C@@H](C)C(=O)N[C@@H](CCCNC(=N)N)C(=O)N[C@@H](Cc1ccccc1)C(=O)O [Fowl-2(19-31)] (H-PKVTITIQGSARF-OH; N-terminus and C-terminus assumed)
MIC (range over bacteria tested) [6]: > 32 µM

CC[C@H](C)[C@H](NC(=O)[C@H](CCCCN)NC(=O)[C@H](CCCNC(=N)N)NC(=O)[C@H](CC(C)C)NC(=O)[C@H](Cc1ccccc1)NC(=O)[C@H](CCCNC(=N)N)NC(=O)CNC(=O)[C@H](Cc1ccccc1)NC(=O)[C@H](CCCNC(=N)N)NC(=O)CNC(=O)[C@H](CCCNC(=N)N)NC(=O)[C@H](CCC(N)=O)NC(=O)[C@@H](NC(=O)[C@@H](N)CC(C)C)C(C)C)C(=O)N[C@@H](CCCNC(=N)N)C(=O)N[C@@H](CCCNC(=N)N)C(=O)N[C@@H](Cc1ccccc1)C(=O)N[C@@H](CCCNC(=N)N)C(=O)N1CCC[C@H]1C(=O)N[C@@H](CCCCN)C(=O)N[C@H](C(=O)N[C@H](C(=O)N[C@H](C(=O)N[C@H](C(=O)N[C@H](C(=O)N[C@@H](CCC(N)=O)C(=O)NCC(=O)N[C@@H](CO)C(=O)N[C@@H](C)C(=O)N[C@@H](CCCNC(=N)N)C(=O)N[C@@H](Cc1ccccc1)C(=O)O)[C@@H](C)CC)[C@@H](C)O)[C@@H](C)CC)[C@@H](C)O)C(C)C [Fowlicidin-2] (H-LVQRGRFGRFLRKIRRFRPKVTITIQGSARF-OH; N-terminus and C-terminus assumed)
MIC [2]: 2.66 µM (≈ 10 µg/mL) | MIC ([7]; NaCl 0 mM): 0.66 µM (≈ 2.48 µg/mL) | MIC ([7]; NaCl 100 mM): 1.33 µM (≈ 5 µg/mL) | MIC [8]: 0.66 µM (≈ 2.48 µg/mL) | MIC [9]: 0.66 µM (≈ 2.48 µg/mL) | MIC [4]: 0.66 µM (≈ 2.48 µg/mL) | MIC [10]: 0.66 µM (≈ 2.48 µg/mL) | MIC (range over bacteria tested) [6]: 0.5 to 2 µM

CC[C@H](C)[C@H](NC(=O)CNC(=O)[C@H](C)NC(=O)[C@H](C)NC(=O)[C@@H](NC(=O)[C@@H](NC(=O)[C@H](CC(N)=O)NC(=O)[C@@H](NC(=O)[C@H](C)NC(=O)[C@@H](NC(=O)[C@@H]1CCCN1C(=O)[C@@H](NC(=O)[C@H](CC(C)C)NC(=O)[C@@H]1CCCN1C(=O)[C@H](Cc1c[nH]c2ccccc12)NC(=O)[C@H](Cc1ccccc1)NC(=O)[C@H](CCCNC(=N)N)NC(=O)[C@@H](N)CCCCN)C(C)C)C(C)C)[C@@H](C)CC)[C@@H](C)O)C(C)C)C(=O)N[C@@H](CC(N)=O)C(=O)N[C@@H](CC(C)C)C(=O)N[C@@H](Cc1ccc(O)cc1)C(=O)N[C@@H](CCCCN)C(=O)N[C@@H](C)C(=O)N[C@H](C(=O)N[C@@H](CCCNC(=N)N)C(=O)N[C@@H](CCCNC(=N)N)C(=O)N[C@@H](CCCCN)C(=O)O)[C@@H](C)CC [Fowlicidin-3] (H-KRFWPLVPVAINTVAAGINLYKAIRRK-OH; N-terminus and C-terminus assumed)
fold reduction in toxicity in the presence of 10% FBS [11]: 2 fold | MIC [12]: 2 µM (≈ 6.19 µg/mL) | MIC [13]: 2 µM (≈ 6.19 µg/mL) | MIC [14]: 2 µM (≈ 6.19 µg/mL) | MIC [15]: 1 µM (≈ 3.1 µg/mL) | MIC [16]: 2 µM (≈ 6.19 µg/mL) | MIC [17]: 2 µM (≈ 6.19 µg/mL) | MIC [18]: 1 µM (≈ 3.1 µg/mL) | MIC [19]: 1 µM (≈ 3.1 µg/mL) | MIC [20]: 1 µM (≈ 3.1 µg/mL) | MICs (range over bacteria tested) [21]: 1 to 2 µM | cytotoxicity (EC50) fold higher than MICs ([22]; in the presence of serum, against all bacterial strains tested): 10-to 40 fold | EC50 ([22]; read-out: 50% effective concentration (EC50), MDCK cell killing, Example 4, without serum, FIG. 20A): 12 µM
